Patent US8394796B2, “Bicyclic pyrimidine PI3K inhibitor compounds selective for P110 delta, and methods of use” (Genentech, Inc., priority 2009, dated 2013)
Read-outs that look alike come from different tables or passages of the source.

Key:
[1] = system: CD69 positive cells that are also CD20 positive, stimulated by anti-IgM, in human whole blood; assay: CD69 whole blood assay (human whole blood, anti-IgM stimulated); assay type: cell-based; conditions: read-out: IC50 in the CD69 Whole Blood Assay
Description: Human blood is obtained from healthy volunteers, with the following restrictions: 1 week drug-free, non-smokers. Blood (approximately 20 mls to test 8 compounds) is collected by venipuncture into Vacutainer tubes with sodium heparin.
Solutions of Formula I compounds at 1000 or 2000 μM in PBS (20×), are diluted by three-fold serial dilutions in 10% DMSO in PBS for a nine point dose-response curve. An aliquot of 5.5 μl of each compound is added in duplicate to a 2 ml 96-well plate; 5.5 μl of 10% DMSO in PBS is added as control and no-stimulus wells. Human whole blood—HWB (100 μl) is added to each well. After mixing the plates are incubated at 37° C., 5% CO2, 100% humidity for 30 minutes. Goat F(ab′)2 anti-human IgM (10 μl of a […] solution, 50 μg/ml final) is added to each well (except the no-stimulus wells) with mixing and the plates are incubated for an additional 20 hours. At the end of the 20 hour incubation, samples are incubated with florescent labeled antibodies for 30 minutes, at 37° C., 5% CO2, 100% humidity. Include induced control, unstained and single stains for compensation adjustments and initial voltage settings. Samples are then lysed with Pharmingen Lyse according to the manufacturer's instructions. Samples are then transferred to a 96 well plate suitable to be run on the AMS 96 well system on the BD Calibur FACs machine. Data acquired and Mean Fluorescence Intensity values were obtained using Cell Quest Software. Results are initially analyzed by FACS analysis software (Flow Jo). […] The IC50 values are calculated by Activityl)ase using Xlfit version 3, equation 201.

[2] = target: T1, p110δ/p85α (PI3K p110 delta) (Homo sapiens, UniProt O00329); assay: PI3K isoform inhibition assay (fluorescence polarization PIP3 displacement; alternatively radiometric), p110 delta; assay type: biochemical; conditions: for IC50: PI3K p110 delta binding IC50; for IC50 p110 alpha/IC50 p110 delta: delta/alpha selectivity: ratio of p110 alpha IC50 to p110 delta IC50
T1 construct: purchased Upstate Group, Millipore; Dundee, UK
T1 sequence (O00329 whole entry, canonical isoform): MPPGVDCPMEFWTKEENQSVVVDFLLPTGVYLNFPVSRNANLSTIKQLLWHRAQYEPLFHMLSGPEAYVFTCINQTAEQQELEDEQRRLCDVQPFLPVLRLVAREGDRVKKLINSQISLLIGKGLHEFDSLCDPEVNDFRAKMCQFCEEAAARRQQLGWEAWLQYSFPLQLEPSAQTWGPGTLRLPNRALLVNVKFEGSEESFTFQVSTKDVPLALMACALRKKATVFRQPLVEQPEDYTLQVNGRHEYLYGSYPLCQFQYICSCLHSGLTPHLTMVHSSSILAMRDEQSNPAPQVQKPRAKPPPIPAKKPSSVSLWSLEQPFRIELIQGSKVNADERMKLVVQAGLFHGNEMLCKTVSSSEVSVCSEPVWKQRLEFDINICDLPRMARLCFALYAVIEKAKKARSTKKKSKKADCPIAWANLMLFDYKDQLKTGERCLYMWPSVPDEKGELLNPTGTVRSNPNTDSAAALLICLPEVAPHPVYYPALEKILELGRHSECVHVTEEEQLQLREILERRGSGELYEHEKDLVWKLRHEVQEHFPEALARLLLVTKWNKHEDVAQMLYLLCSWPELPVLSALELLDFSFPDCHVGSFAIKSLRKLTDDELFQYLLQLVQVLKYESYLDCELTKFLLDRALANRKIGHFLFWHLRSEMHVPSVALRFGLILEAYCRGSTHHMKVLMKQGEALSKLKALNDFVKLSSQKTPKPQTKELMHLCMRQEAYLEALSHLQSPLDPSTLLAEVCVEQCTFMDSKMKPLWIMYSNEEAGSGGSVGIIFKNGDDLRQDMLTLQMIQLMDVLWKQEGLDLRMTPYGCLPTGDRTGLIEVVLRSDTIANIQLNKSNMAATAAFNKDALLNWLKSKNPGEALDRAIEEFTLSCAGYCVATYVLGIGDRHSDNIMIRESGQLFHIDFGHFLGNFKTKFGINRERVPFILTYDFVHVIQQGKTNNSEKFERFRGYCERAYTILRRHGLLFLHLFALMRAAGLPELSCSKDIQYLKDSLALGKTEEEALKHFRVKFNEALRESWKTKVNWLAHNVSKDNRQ
T1 sequence (P27986 whole entry partner, canonical isoform): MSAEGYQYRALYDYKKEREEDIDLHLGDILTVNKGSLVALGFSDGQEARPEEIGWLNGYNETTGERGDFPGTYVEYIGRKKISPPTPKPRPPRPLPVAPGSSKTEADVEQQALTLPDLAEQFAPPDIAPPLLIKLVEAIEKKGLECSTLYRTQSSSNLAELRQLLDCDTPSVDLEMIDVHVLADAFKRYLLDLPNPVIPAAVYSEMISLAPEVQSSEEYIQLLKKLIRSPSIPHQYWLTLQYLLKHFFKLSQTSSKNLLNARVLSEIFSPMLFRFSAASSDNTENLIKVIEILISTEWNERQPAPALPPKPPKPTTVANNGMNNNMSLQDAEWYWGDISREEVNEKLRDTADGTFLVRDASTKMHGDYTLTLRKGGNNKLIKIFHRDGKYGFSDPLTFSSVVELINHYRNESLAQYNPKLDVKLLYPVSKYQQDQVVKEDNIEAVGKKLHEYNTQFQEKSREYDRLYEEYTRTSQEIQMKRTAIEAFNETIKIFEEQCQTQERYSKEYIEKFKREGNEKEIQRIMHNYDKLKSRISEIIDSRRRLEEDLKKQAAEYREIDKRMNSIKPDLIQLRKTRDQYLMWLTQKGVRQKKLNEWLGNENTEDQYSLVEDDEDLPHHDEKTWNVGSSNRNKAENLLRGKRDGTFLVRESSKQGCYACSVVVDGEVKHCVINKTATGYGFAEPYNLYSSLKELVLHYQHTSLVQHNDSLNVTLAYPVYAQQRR
Description: PI3K Isoform Inhibition Assay (p110 Alpha, Beta, Gamma, Delta: α, β, γ, δ)
PI3K enzymatic activity was assayed by measuring the amount of product phosphatidylinositol 3,4,5-phosphate (PIP3) formed from substrate 4,5 phosphatidylinositol 4,5-phosphate (PIP2) using a fluorescence polarization displacement assay. The decrease in fluorescence polarization of a fluorescent PIP3 probe is measured as it is displaced from a PIP3-binding protein GRP-1 detector by PI3K-catalyzed product. […] The kinase reactions were initiated by the addition of 40 ng/mL p110α/p85α, 300 ng/mL p110β/p85α, 40 ng/mL p110γ, or 40 ng/mL p110δ/p85α (Upstate Group, Millipore; Dundee, UK), and 10 μM PIP2 (Echelon Biosciences) to the wells. […] After 60 minutes of incubation at room temperature to allow equilibration of labeled and unlabeled PIP3 binding, the parallel and perpendicular components of the fluorescence emissions from each sample were measured at an excitation wavelength of 530 nm and an emission wavelength of 590 nm using an Envision fluorescent plate reader with a rhodamine filter (PerkinElmer Life and Analytical Sciences; Wellesley, Mass.). The assay is capable of detecting 0.1-2.0 μM PIP3 product. The IC50 values were obtained by fitting the dose-dependent inhibition data to a 4-parameter equation using Assay Explorer software (MDL, San Ramon, Calif.).
The Formula I compound was serially diluted in 100% DMSO. The kinase reaction was incubated for 1 h at room temperature, and the reaction was terminated by the addition of PBS. IC50 values were subsequently determined using sigmoidal dose-response curve fit (variable slope).
HT baculovirus expression system (GIBCO/BRL), and then purified for use in biochemical assays. The four Class I PI 3-kinases are cloned into baculovirus vectors as follows: […]

[3] = concentration decreasing by 50% the percent CD69 positive of CD20 positive cells stimulated by anti-IgM, 20 hours

Row | IC50 [1, 3] | IC50 [2] | IC50 p110 alpha/IC50 p110 delta [2] | SMILES | IC50 ([1]; 20 h)
1 | 20.6 nM | – | – | Cc1nc2ccccc2n1-c1nc(N2CCOCC2)c2nc(CN3CCN(C(C)(C)C(N)=O)CC3)n(C)c2n1 [Example 406, 2-methyl-2-(4-((9-methyl-2-(2-methyl-1H-benzo[d]imidazol-1-yl)-6-morpholino-9H-purin-8-yl)methyl)piperazin-1-yl)propanamide] | –
2 | 17.8 nM | 2.74 nM | 64 | Cc1nc2ccccc2n1-c1nc(N2CCOCC2)c2oc(CN3CCN(C(C)(C)C(N)=O)CC3)cc2n1 [Example 240, 2-methyl-2-(4-((2-(2-methyl-1H-benzo[d]imidazol-1-yl)-4-morpholinofuro[3,2-d]pyrimidin-6-yl)methyl)piperazin-1-yl)propanamide] | –
3 | 56.7 nM | – | – | Cn1c(CN2CCN(C(C)(C)CO)CC2)nc2c(N3CCOCC3)nc(-n3c(CCO)nc4ccccc43)nc21 [Example 427, 2-(4-((2-(2-(2-hydroxyethyl)-1H-benzo[d]imidazol-1-yl)-9-methyl-6-morpholino-9H-purin-8-yl)methyl)piperazin-1-yl)-2-methylpropan-1-ol] | –

The next lines start with the molecule.

Row | SMILES | IC50 [1, 3] | IC50 [2] | IC50 p110 alpha/IC50 p110 delta [2] | IC50 ([1]; 20 h)
4 | Cn1c(CN2CCN(C(C)(C)C(N)=O)CC2)nc2c(N3CCOCC3)nc(-n3c(C4CC4)nc4ccccc43)nc21 [Example 438, 2-(4-((2-(2-cyclopropyl-1H-benzo[d]imidazol-1-yl)-9-methyl-6-morpholino-9H-purin-8-yl)methyl)piperazin-1-yl)-2-methylpropanamide] | 65.9 nM | – | – | –
5 | CC(C)c1nc2ccccc2n1-c1nc(N2CCOCC2)c2nc(CN3CCN(C(C)(C)CO)CC3)[nH]c2n1 [Example 490, 2-(4-((2-(2-isopropyl-1H-benzo[d]imidazol-1-yl)-6-morpholino-9H-purin-8-yl)methyl)piperazin-1-yl)-2-methylpropan-1-ol] | 38.3 nM | 2.38 nM | 111 | –
6 | CN(C)C1CCN(Cc2cc3nc(-c4ccc(O)c5nccn45)nc(N4CCOCC4)c3s2)CC1 [Example 689, 5-(6-((4-(dimethylamino)piperidin-1-yl)methyl)-4-morpholinothieno[3,2-d]pyrimidin-2-yl)imidazo[1,2-a]pyridin-8-ol] | – | 25.8 nM | 23 | 29 nM
7 | CCc1nc2ccccc2n1-c1nc(N2CCOCC2)c2nc(CN3CC([C@@H](O)C(C)C)C3)n(C)c2n1 [Example 388, (S)-1-(1-((2-(2-ethyl-1H-benzo[d]imidazol-1-yl)-9-methyl-6-morpholino-9H-purin-8-yl)methyl)azetidin-3-yl)-2-methylpropan-1-ol] | 51.1 nM | – | – | –
8 | Cn1c(CN2CCN(C(C)(C)C)CC2)nc2c(N3CCOCC3)nc(-n3c(C4CC4)nc4ccccc43)nc21 [Example 403, 4-(8-((4-tert-butylpiperazin-1-yl)methyl)-2-(2-cyclopropyl-1H-benzo[d]imidazol-1-yl)-9-methyl-9H-purin-6-yl)morpholine] | 22 nM | – | – | –
